Holding throughout (assay type): cell-based
Assay [1] deals with T1, P-selectin (Homo sapiens) (UniProt P16109).
T1 sequence (whole entry): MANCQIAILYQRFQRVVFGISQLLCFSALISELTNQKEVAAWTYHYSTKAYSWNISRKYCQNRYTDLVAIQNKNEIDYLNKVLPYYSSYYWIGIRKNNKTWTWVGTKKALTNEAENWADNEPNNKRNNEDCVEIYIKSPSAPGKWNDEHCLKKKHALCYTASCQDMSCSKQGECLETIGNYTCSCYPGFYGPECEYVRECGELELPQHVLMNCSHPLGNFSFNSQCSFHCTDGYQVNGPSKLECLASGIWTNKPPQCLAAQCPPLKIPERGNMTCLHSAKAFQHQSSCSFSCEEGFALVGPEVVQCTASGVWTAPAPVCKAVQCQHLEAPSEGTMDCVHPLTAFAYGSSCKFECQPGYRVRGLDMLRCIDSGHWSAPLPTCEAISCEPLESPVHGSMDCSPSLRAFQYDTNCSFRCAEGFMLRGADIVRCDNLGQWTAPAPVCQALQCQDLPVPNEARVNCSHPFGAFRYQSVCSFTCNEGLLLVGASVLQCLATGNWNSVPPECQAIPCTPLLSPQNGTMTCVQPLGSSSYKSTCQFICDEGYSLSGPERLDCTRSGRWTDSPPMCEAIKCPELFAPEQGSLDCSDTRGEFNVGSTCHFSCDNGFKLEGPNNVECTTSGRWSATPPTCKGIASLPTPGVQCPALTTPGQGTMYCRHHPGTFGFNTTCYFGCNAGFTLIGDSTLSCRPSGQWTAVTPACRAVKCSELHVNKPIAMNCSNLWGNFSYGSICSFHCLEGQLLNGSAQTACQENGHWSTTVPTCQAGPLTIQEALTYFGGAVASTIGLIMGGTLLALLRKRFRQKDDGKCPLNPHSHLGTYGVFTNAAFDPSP
In words: Inhibition of human P-selectin-dependent adhesion of activated platelets to HL60 cells after 30 mins by flow cytometry. The settings on record: HL-60. In general terms: A flow cytometer gives signals particle by particle.

For another assay, the target named is T2, P-selectin (Homo sapiens, UniProt P16109).
T2 sequence (P16109 whole entry): T1 sequence (whole entry)
In words: (§1) Displacement of immobilized sulfatide from P-selectin transfected in african green monkey COS cells by IgG-based competitive ELISA. For orientation: ELISA stands for enzyme-linked immunosorbent assay.

Assay [2] addresses T1, P-selectin (Homo sapiens). Described as §1.
Assay [3] can be described thus: Inhibition of human P-selectin receptor globulin adhesion to HL60 cells. The settings on record: HL-60.

Calls of active or inactive are those of the source. The rule behind the calls is not given here.

Molecule `CCCCC/C=C/C/C=C/CCCCCCCC(=O)OC(COC(=O)CCCCCCCCCCCCCCC)COP(=O)(O)OCC(O)CO` (stereo unspecified) [PHOSPHATIDYL GLYCEROL] displayed an inhibition in assay [1] of 0%. Besides, on P-selectin, the IC50 was found to be 1 µM.

With `CCCCCCCCCCCCCC(=O)OCC(COP(=O)(O)OCCN)OC(=O)CCCCCCCCCCCCC` (stereo unspecified), the result in assay [2] was inactive.

For `CCCCCCCCCCCCCCCC(=O)OCC(CO[C@H]1O[C@H](CS(=O)(=O)O)[C@@H](O)[C@H](O)[C@H]1O)OC(=O)CCCCCCCCCCCCCCC` (stereo partly specified) [SULFONOQUINOVOSYL DIPALMITOYL GLYCERIDE], the inhibition in assay [1] was 24%. Besides, the IC50 in assay [3] was 40 µM; on P-selectin, 5 µM.

A word on the inhibition: it is the percentage by which the read-out fell short of the control. For orientation: IC50 means the concentration at which inhibition is half-maximal.

The values above are taken from ChEMBL document CHEMBL1146397, “Isolation and structure determination of sulfonoquinovosyl dipalmitoyl glyceride, a P-selectin receptor inhibitor from the alga Dictyochloris fragrans” (J Nat Prod, 1997).
